{
  "source": "patent US12297426B2",
  "about": "“DNA damage response signature guided rational design of CRISPR-based systems and therapies” (THE BROAD INSTITUTE, INC., priority 2019, dated 2025)",
  "tested_on": "MCF7 cells",
  "experiment": "Drug response assay (CellTiter-Glo)",
  "assay_type": "cell-based, human",
  "details": "Cas9-expressing vs parental MCF7 cells; 0 μM-100 μM, 72 h",
  "procedure": "To further test the functional implications of Cas9-induced p53 activation, compared the response of parental and Cas9-expressing MCF7 cells to the MDM2-inhibitor nutlin-3 was compared. […] Without being bound by theory, these findings conclude that Cas9-induced p53 activation can affect both genetic and chemical perturbation assays.\nMCF7 cells were seeded at a density of 9,000 cells per well in a 96-well plate. The next day, media was washed and fresh media containing nutlin-3 (Sigma-Aldrich) was added to the corresponding wells in a concentration range of 0 μM-100 μM. After 72 h of incubation, levels of ATP were measured as a surrogate marker for cell viability using the CellTiter-Glo assay (Promega). Luminescence measurements were acquired in a SpectraMax reader (ATC) using an integration time of 500 ms.",
  "data": [
    {"smiles": "COc1ccc(C2=N[C@@H](c3ccc(Cl)cc3)[C@@H](c3ccc(Cl)cc3)N2C(=O)N2CCNC(=O)C2)c(OC(C)C)c1", "note": "[nutlin-3]", "values": [
      {"measurement": "drug sensitivity", "result": "modest, but significant, increase"}
    ]}
  ]
}
